Legend:
A549 cells = assay: MTT cytotoxicity assay, A549; assay type: cell-based, human; settings: 72 h
Method: (§1) The cytotoxicity study of the prepared copper(II) complexes was performed using the MTT assay on human cell lines—A549 (adenocarcinoma human alveolar basal epithelial cell line), HepG2 (human liver cancer cell line) and HEL (human lung fibroblast cell line, normal cells).
(§2) The cytotoxicity of the prepared copper(II) complexes in human cell lines was evaluated using the 3-(4,5-dimethylthiazol-2-yl)-2,5-diphenyltetrazolium bromide (MTT) assay following the protocol by Mosmann. Briefly, A549 (human lung epithelial cells, carcinoma), HepG2 (human liver epithelial cells, carcinoma) and HEL (human lung fibroblast cells, normal) cells were seeded in plastic 96-well plates at a density of 1.5–2 × 10^4 cells per well. […] After the treatment, the samples were washed with phosphate-buffered saline (PBS), followed by 4 h of incubation with 1 mg/mL of MTT. Subsequently, the MTT solution was removed, and the formed formazane solids were dissolved in dimethyl sulfoxide for 30 min. The photometric evaluation (at 540 nm and 690 nm) was carried out using an xMark™ Microplate Absorbance Spectrophotometer (Bio-Rad, Hercules, CA, USA) [88].
(§3) A549 (ATCC® CCL-185), HepG2 (ATCC® HB-8065) and HEL299 (ATCC® CCL-137) cells were obtained from Lambda Life (Bratislava, Slovakia). A549 cells were kept in Dulbecco’s Modified Eagle’s Medium (DMEM) supplemented with 10% fetal bovine serum (FBS) and 1% antibiotics (penicillin and streptomycin). HepG2 cells were kept in Williams medium supplemented with 10% fetal bovine serum (FBS) and 1% antibiotics (penicillin and streptomycin). HEL299 cells were kept in Minimum Essential Medium (MEM) supplemented with 10% fetal bovine serum (FBS), 1% antibiotics (penicillin and streptomycin) and 1% non-essential amino acids (NEAA). The cells were cultured in a humidified atmosphere of 5% CO2 at 37 °C. Once the cells reached approximately 80% confluence, they were harvested and subcultured after trypsin treatment.

[1] = test system: supercoiled DNA plasmid pBR322; assay: DNA cleavage assay (agarose gel electrophoresis); assay type: biochemical; settings: for Form I (%) / Form II (%) / Form III (%): 3 h, 37 °C, 250 ng pDNA
Source text: The gel electrophoresis separation of the supercoiled DNA plasmid pBR322 induced by prepared copper(II) complexes is shown in Figure 7. […] The cleavage activity of 4a and 4c increased remarkably with increasing concentration.
The DNA cleaving activities were also quantified using the “geneQUANT software” (Cleaver Scientific, UK). Data are expressed as percentage (%) expression of the amount of pDNA that has passed through the effect of the nuclease activity of the copper complex from the uncleaved supercoiled Form I to the cleaved Form II (open-circular pDNA) or Form III (linear pDNA) (Table 5). […] Therefore, each percentage can also be converted to the mass of pDNA turned to Form II or III. For example, for complex 4a at a 1 mM concentration, 41.2% of pDNA was cleaved to Form II, which is 103 ng of pDNA, or at a 3 mM concentration, 46.2% corresponds to 115.5 ng of pDNA. Quantification allows us to compare the specific complexes more precisely. […] Some aggregation might be present at higher concentrations, keeping the amount of reactive monomer at a lower level.
The ability of copper(II) complexes to cleave DNA was examined by following the conversion of supercoiled plasmid DNA (Form I) to the open-circular DNA (Form II) and/or linear DNA (forms using agarose gel electrophoresis to separate the cleavage products.
In general, 250 ng of the DNA plasmid pBBR 322 (in 25 mM TRIS-HCl buffer solution, pH 7.5) was treated with different concentrations (1 mM, 3 mM and 5 mM) of the copper(II) complex (dissolved in DMSO) for 3 h at 37 °C. After that, each reaction was quenched by adding 4 μL of a Smart Glow Loading Dye® (loading buffer solution with 0.01% Safe Green dye, 50% glycerol and 250 mM EDTA, pH 8.0) and the sample subjected to electrophoresis (MyGel Mini electrophoresis system®, Accuris, Edison, NJ, USA) on a 0.9% agarose gel containing TAE buffer (40 mM TRIS, 20 mM acetic acid and 1 mM EDTA) at a voltage of 55 V/40 mA for about 1.5 h. As a “running buffer”, TAE buffer (40 mM TRIS, 20 mM acetic acid and 1 mM EDTA) was used. The resulting gels were visualized with UV light and scanned by a mobile device, an Apple iPhone 11 cam 26 mm f1.8. DNA cleaving activities were quantified using the “geneQUANT software” (version 4.3.9, Cleaver Scientific, Rugby, UK).
In the following tables, the percentage (%) expression of the amount of pDNA that has passed through the effect of the nuclease activity of the copper complex from the uncleaved supercoiled form I to the cleaved form II (open circular pDNA) or form III (linear pDNA). Quantitative evaluation was performed using the […] (Cleaver Scientific, UK). V (tested sample) = 20 ul; c (pDNA) = 250 […]
Figure S2-1: The original gel scan: upper left lines 1 – 4 complex 4a (0 mM, 1 mM, 3mM, 5mM), upper lines 6 – 9 complex 4b (0 mM, 1 mM, 3mM, 5mM), lower lines 1 – 4 complex 4c (0 mM, 1 mM, 3mM, […]
(1 picture or pasted object on this page, not shown here)

EB–DNA adduct (ct-DNA) = assay: EB–DNA displacement method (fluorescence quenching); assay type: binding, calf; settings: for Stern–Volmer quenching constant Ksv / quenching rate constant kq: EB–DNA adduct; for quenching rate constant kq: τ0 = 23 × 10^−9 s; for Δ I/I0, EB–DNA fluorescence quenching: maximum quenching of EB–DNA emission
Source text: Competitive-binding experiments using the ethidium bromide (EB) displacement method from DNA may provide another confirmation of the binding affinity of the complexes. EB is a well-known DNA intercalator able to form an EB–DNA adduct by its insertion between adjacent DNA base pairs. The EB–DNA adduct is distinguished by an intense fluorescence emission band at 615 nm after excitation at 540 nm. Introducing a compound with DNA affinity leads to emission intensity decrease of the EB–DNA adduct as a result of the competition between the measured compound and EB for the binding sites within DNA.
Competitive-binding experiments to determine the displacement of the intercalator ethidium bromide (EB) from the EB–DNA adduct were conducted by fluorescence spectroscopy. To prepare the EB–DNA adduct, 20 μM EB and 54 μM ct-DNA were added to citrate buffer (sodium citrate at 15 mM and sodium chloride at 150 mM at pH = 7.0). The addition of increasing concentrations of complexes 4a–c (c = 1 mM) to a solution of the EB–DNA complex corresponded to the intercalating effect of the complexes. The concentration of the added complexes ranged from 0 to 0.2 mM. Fluorescence emission spectra were recorded in the range of 550–800 nm with an excitation wavelength of 515 nm. […] Quenching of the EB–DNA emission band by the compounds 4a–c was calculated using the Stern–Volmer equation (Equations (2)–(4)).
The extent of the inner-filter effect can be roughly estimated with the following equation:(2) Icorr=Imeas×10^ε(λexc)cd/2×10^ε(λem)cd/2 where Icorr is the corrected intensity, Imeas is the measured intensity, c is the quencher concentration, d is the width of the cuvette (1 cm) and ε(λexc) and ε(λem) are the […] of the quencher at the excitation and the emission wavelength calculated from the UV–Vis spectra of the complexes.
The quenching of the EB–DNA emission band by compounds was calculated via the Stern–Volmer equation:(3) Io/I=1+kqτ0Q=1+KSVQ where Io = the initial fluorescence intensity of the EB–DNA adduct, and I is the fluorescence intensity of the EB–DNA adduct after the addition of the quencher (studied complexes), kq = the quenching rate constant, KSV = the Stern–Volmer constant, τo = the average fluorescence lifetime of the EB–DNA adduct (23 × 10^−9 s), [Q] = the quencher concentration, respectively, KSV (in M^−1) can be obtained by the slope of the Stern–Volmer plot and kq (in M^−1 s^−1) can be calculated from Equation (4):(4) KSV=kqτ0

[2] = test system: HEL cells (human lung fibroblast, normal); assay: MTT cytotoxicity assay, HEL; assay type: cell-based; settings: 72 h
Method: as §1, §2, §3

Compound	IC50 (A549 cells)	mass of pDNA in Form I ([1]; complex 1 mM, of 250 ng pDNA)	mass of pDNA in Form II ([1]; complex 1 mM, of 250 ng pDNA)	mass of pDNA in Form I ([1]; complex 3 mM, of 250 ng pDNA)	mass of pDNA in Form II ([1]; complex 3 mM, of 250 ng pDNA)	Form I (%) ([1]; complex 1 × 10^−3 M)	Form II (%) ([1]; complex 1 × 10^−3 M)	Form III (%) ([1]; complex 1 × 10^−3 M)	Form I (%) ([1]; complex 3 × 10^−3 M)	Form II (%) ([1]; complex 3 × 10^−3 M)	Form III (%) ([1]; complex 3 × 10^−3 M)	Form I (%) ([1]; complex 5 × 10^−3 M)	Form II (%) ([1]; complex 5 × 10^−3 M)	Stern–Volmer quenching constant Ksv (EB–DNA adduct (ct-DNA))	quenching rate constant kq (EB–DNA adduct (ct-DNA))	Δ I/I0, EB–DNA fluorescence quenching (EB–DNA adduct (ct-DNA))	IC50 [2]	mass of pDNA in Form I ([1]; complex 5 mM, of 250 ng pDNA)	mass of pDNA in Form II ([1]; complex 5 mM, of 250 ng pDNA)	Form III (%) ([1]; complex 5 × 10^−3 M)	further results
COc1ccccc1CN=Cc1ccccc1[O-].COc1ccccc1CN=Cc1ccccc1[O-].[Cl-].[Cl-].[Cu+2].[Cu+2] [Complex 4a, [Cu2 (Sal-2-MeOBn)2 Cl2]]	66.4 ± 6.2 µM	147 ng	103 ng	134,5 ng	115,5 ng	58,8%	41,2%	0%	53,8%	46,2%	0%	0%	0%	4.58 (±0.10) M^−1 × 10^3	1.98 (±0.05) M^−1 s^−1 × 10^11	45.7%	65.9 ± 6.9 µM	–	–	–	mass of pDNA in Form III ([1]; complex 5 mM, of 250 ng pDNA): 250 ng
COc1ccc(CN=Cc2ccccc2[O-])cc1.COc1ccc(CN=Cc2ccccc2[O-])cc1.[Cl-].[Cl-].[Cu+2].[Cu+2] [Complex 4c, [Cu2 (Sal-4-MeOBn)2 Cl2]]	72 ± 6.5 µM	124,5 ng	125,5 ng	–	250 ng	49,8%	50,2%	0%	0%	–	0%	4,7%	95,3%	3.82 (±0.12) M^−1 × 10^3	1.66 (±0.05) M^−1 s^−1 × 10^11	40.7%	62.9 ± 6.2 µM	11,75 ng	238,25 ng	0%	–
COc1cccc(CN=Cc2ccccc2[O][Cu][O]c2ccccc2C=NCc2cccc(OC)c2)c1 [Complex 4b, [Cu (Sal-3-MeOBn)2]]	127 ± 8.1 µM	146,25 ng	103,75 ng	140,5 ng	109,5 ng	58,5%	41,5%	0%	56,2%	43,8%	0%	48,2%	51,8%	3.61 (±0.09) M^−1 × 10^3	1.56 (±0.04) M^−1 s^−1 × 10^11	40.1%	44.3 ± 3.6 µM	120,5 ng	129,5 ng	0%	–
